Test results from publication PMC6063332 (Archives of Toxicology, 2018).

Key:
HDAC10 = biological target: T1, HDAC10 (Homo sapiens, UniProt Q969S8); experiment: NanoBRET cellular target engagement assay; type: binding; conditions: HeLa cells
T1 construct: host or cells: HeLa cells, stably transfected
T1 sequence (Q969S8 1-669): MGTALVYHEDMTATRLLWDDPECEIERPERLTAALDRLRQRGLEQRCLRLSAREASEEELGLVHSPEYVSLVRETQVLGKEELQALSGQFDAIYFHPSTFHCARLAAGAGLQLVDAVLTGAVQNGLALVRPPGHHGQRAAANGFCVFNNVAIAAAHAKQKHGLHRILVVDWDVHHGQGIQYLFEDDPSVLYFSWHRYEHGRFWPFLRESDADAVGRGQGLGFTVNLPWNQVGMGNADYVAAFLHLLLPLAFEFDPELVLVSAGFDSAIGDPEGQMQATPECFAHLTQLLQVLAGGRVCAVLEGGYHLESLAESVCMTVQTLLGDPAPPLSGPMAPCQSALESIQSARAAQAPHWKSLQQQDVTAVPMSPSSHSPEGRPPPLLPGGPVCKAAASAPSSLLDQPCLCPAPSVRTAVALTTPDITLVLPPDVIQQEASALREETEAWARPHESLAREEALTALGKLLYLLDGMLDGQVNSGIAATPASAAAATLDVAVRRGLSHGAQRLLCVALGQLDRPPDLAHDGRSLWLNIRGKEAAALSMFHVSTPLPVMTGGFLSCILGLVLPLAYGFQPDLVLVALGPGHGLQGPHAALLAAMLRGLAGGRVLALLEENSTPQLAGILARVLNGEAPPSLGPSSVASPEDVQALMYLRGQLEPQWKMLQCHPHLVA
Description: HeLa cells, stably transfected with NanoBRET plasmids NanoLuc®-HDAC6 FL Fusion Vector and NanoLuc®-HDAC10 FL Fusion Vector (Promega, Madison, WI, USA) were seeded at 20,000 cells/well in white 96-well plates. Without further incubation, tracer (0.3 µM) and drugs were added in separate steps and plates were placed in a tissue culture incubator for 2 h. For NanoBRET quantification, plates were put at room temperature for 10 min. Nanoglow substrate, diluted in OptiMEM without phenol red, was added and measured within 10 min in an OPTIMA plate reader (460 nm emission for donor and 610LP filter for acceptor, BMG Labtech, Ortenberg, Germany). The BRET signal was calculated by the ratio of acceptor signal to donor signal.

HDAC3 = biological target: T2, HDAC3 (Homo sapiens, UniProt O15379); experiment: Biochemical HDAC3 activity, fluorogenic p53 peptide (Reaction Biology); conditions: fluorogenic p53 peptide RHKK(Ac)AMC
T2 construct: purchased Reaction Biology Corp. (contract testing)
T2 sequence (O15379 whole entry): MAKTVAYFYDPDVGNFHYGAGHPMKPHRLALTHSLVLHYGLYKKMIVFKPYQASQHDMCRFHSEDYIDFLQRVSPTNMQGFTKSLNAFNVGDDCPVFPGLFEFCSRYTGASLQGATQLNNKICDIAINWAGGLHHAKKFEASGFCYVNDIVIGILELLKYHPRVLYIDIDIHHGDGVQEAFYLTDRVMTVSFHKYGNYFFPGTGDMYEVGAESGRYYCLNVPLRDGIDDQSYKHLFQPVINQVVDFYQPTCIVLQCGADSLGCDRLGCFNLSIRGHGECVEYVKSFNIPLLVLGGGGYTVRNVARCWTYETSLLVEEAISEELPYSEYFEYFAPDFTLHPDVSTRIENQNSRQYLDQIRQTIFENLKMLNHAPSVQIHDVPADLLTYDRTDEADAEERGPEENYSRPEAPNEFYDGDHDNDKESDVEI
T2 sequence (Q9Y618 395-489 partner limits assumed): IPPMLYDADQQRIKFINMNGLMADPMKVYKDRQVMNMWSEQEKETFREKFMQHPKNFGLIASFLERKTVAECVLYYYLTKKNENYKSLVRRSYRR
From the text: ^2 Biochemical HDAC3 IC50 value, determined using a fluorogenic p53 peptide, detailed results depicted in Supplementary Figure 1 a.

## Cc1ccc(C(=O)NO)cc1NCc1ccccc1 [TH34, 3-(N-benzylamino)-4-methylbenzhydroxamic acid]
HDAC10
  IC50: 7.7 µM
HDAC3
  IC50: 78.3 ± 0.9 µM
